The values below come from ChEMBL document CHEMBL1201862, “PubChem BioAssay data set” (2004).

SMILES strings stand for the structures.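 Tested at 5 concentrations; 48 h exposure; 96-well plates; endpoints linearly interpolated, else capped at highest concentration. Abbreviation: GI50, concentration required for 50% inhibition of growth.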 The source made the active and inactive calls. Cut-off read from the data, not from the text of the source: active = GI50 up to about 1.1 µM and inactive = higher. A value given as a limit tells only on which side of the number the result lay.

Among the test systems are SW-620; SF-268; MOLT-4; MDA-MB-231; HOP-92; IGROV-1; NCI-H23; HCT-116; 786-0; KM12; NCI-H226; OVCAR-3; HCT-15; PC-3; Hs-578T; SNB-19; BT-549; OVCAR-4; MDA-N; CAKI-1.
Holding throughout (assay): NCI tumour cell line growth inhibition, 48 h

Turning to `c1ccc(-c2sc(-c3ccccc3)c3c2C2CCC3C2)cc1`, the GI50 in the assay with SW-620 is 43300 nM (inactive); in the assay with SF-268, 53300 nM (inactive); with MOLT-4 it was 52400 nM (inactive); in the assay on MDA-MB-231, 27600 nM (inactive); in the assay with HOP-92, 12600 nM (inactive); with IGROV-1, 47100 nM (inactive). Moreover, the GI50 with NCI-H23 was 33500 nM (inactive); in the assay on HCT-116, 27000 nM (inactive); in the assay with 786-0 it was 45900 nM (inactive); with KM12, 30600 nM (inactive); in the assay on NCI-H226 it was 32500 nM (inactive); with OVCAR-3, 30600 nM (inactive). Further, the GI50 in the assay with HCT-15 is 31600 nM; in the assay with PC-3, 25500 nM (inactive); with Hs-578T, 20000 nM (inactive); in the assay on SNB-19 it was > 100000 nM (inactive); with BT-549, 40700 nM (inactive); in the assay on OVCAR-4, > 100000 nM (inactive). The GI50 in the assay with MDA-N was 43000 nM (inactive); with CAKI-1, 49900 nM (inactive).
For `CC(C)/C(Cl)=N/OC(=O)Nc1ccc(Cl)c(Cl)c1`, the GI50 in the assay on SW-620 was 2130 nM (inactive); with SF-268 it was 18200 nM (inactive); in the assay on MOLT-4, 2490 nM (inactive); in the assay on MDA-MB-231, 14900 nM (inactive); in the assay with HOP-92, 1720 nM (inactive); in the assay with IGROV-1, 11700 nM (inactive). Further, the GI50 with NCI-H23 is 15300 nM (inactive); in the assay with HCT-116, 2180 nM (inactive); with 786-0, 1960 nM (inactive); with KM12, 17500 nM (inactive); with NCI-H226, 18100 nM (inactive); with OVCAR-3, 2580 nM (inactive). For the same molecule, the GI50 is 2330 nM with HCT-15; 16600 nM (inactive) with PC-3; 23700 nM (inactive) with Hs-578T; 21500 nM (inactive) in the assay with SNB-19; 4840 nM (inactive) with BT-549; 9310 nM (inactive) with OVCAR-4. The values for the GI50 with MDA-N and with CAKI-1 were 3590 nM (inactive) and 1750 nM (inactive), respectively.
For the molecule `Cc1cn([C@@H]2O[C@H](CO[Si](C)(C)C(C)(C)C)[C@]3(O[C@H]3C(=O)NO)[C@H]2O[Si](C)(C)C(C)(C)C)c(=O)[nH]c1=O`, the GI50 in the assay on SW-620 is 1910 nM (inactive); with SF-268 it was 1620 nM (inactive); in the assay with MOLT-4, 1730 nM (inactive); with MDA-MB-231, 2090 nM (inactive); in the assay on HOP-92 it was 1940 nM (inactive); in the assay on IGROV-1, 1710 nM (inactive). Besides, the GI50 was 1910 nM (inactive) in the assay with NCI-H23; 1520 nM (inactive) in the assay with HCT-116; 1540 nM (inactive) in the assay on 786-0; 1790 nM (inactive) in the assay with KM12; 1940 nM (inactive) with NCI-H226; 1610 nM (inactive) in the assay on OVCAR-3. Moreover, the GI50 with HCT-15 is 1870 nM; with PC-3 it was 2260 nM (inactive); in the assay on Hs-578T, 1920 nM (inactive); in the assay on SNB-19, 1660 nM (inactive); in the assay on BT-549, 1660 nM (inactive); in the assay with OVCAR-4, 1750 nM (inactive). For the same molecule, the results for the GI50 in the assay with MDA-N and with CAKI-1 were 1580 nM (inactive) and 2070 nM (inactive), respectively.
Turning to `CC1(c2ccc(F)cc2)CC(c2ccc(F)cc2)=C(C#N)C(=C(C#N)C#N)N1` (centres undefined), the GI50 with SW-620 was 7570 nM (inactive); in the assay with SF-268, 15800 nM (inactive); with MOLT-4, 14400 nM (inactive); in the assay on MDA-MB-231 it was 21200 nM (inactive); in the assay with HOP-92, 12600 nM (inactive); in the assay on IGROV-1, 17100 nM (inactive). Also, the GI50 in the assay with NCI-H23 is 17300 nM (inactive); with HCT-116, 15600 nM (inactive); in the assay on 786-0, 15300 nM (inactive); in the assay on KM12, 15000 nM (inactive); in the assay on NCI-H226, 21200 nM (inactive); in the assay on OVCAR-3 it was 5980 nM (inactive). Further, the GI50 with HCT-15 is 14800 nM; in the assay with PC-3, 16300 nM (inactive); with Hs-578T it was 23300 nM (inactive); in the assay on SNB-19, 17400 nM (inactive); in the assay with BT-549, 24900 nM (inactive); in the assay with OVCAR-4, 13400 nM (inactive). For the same molecule, the values for the GI50 in the assay on MDA-N and in the assay with CAKI-1 were 17400 nM (inactive) and 16000 nM (inactive), respectively.
In the case of `COC(=O)c1cc2cc3c(c(O)c2c(=O)o1)O[C@@]1(Oc2c(O)c4c(c(O)c2[C@H]1OC1CC(OC)C(O)C(C)O1)C(=O)C=C(OC)C4=O)[C@H](O)C3` (some centres undefined), the GI50 in the assay on SW-620 is 1070 nM (active); in the assay on SF-268, 986 nM (active); in the assay on MOLT-4, 748 nM (active); in the assay on MDA-MB-231, 1270 nM (inactive); in the assay on HOP-92 it was 2410 nM (inactive); with IGROV-1, 705 nM (active). The GI50 with NCI-H23 was 940 nM (active); in the assay with HCT-116, 735 nM (active); in the assay on 786-0, 991 nM (active); in the assay on KM12, 904 nM (active); in the assay with NCI-H226, 1320 nM (inactive); in the assay with OVCAR-3 it was 1450 nM (inactive). The GI50 was 908 nM in the assay with HCT-15; 1360 nM (inactive) with PC-3; 1170 nM (inactive) in the assay on Hs-578T; 1000 nM (active) in the assay on SNB-19; 1300 nM (inactive) with BT-549; 604 nM (active) in the assay with OVCAR-4. Further, the GI50 is 1220 nM (inactive) in the assay with MDA-N and 448 nM (active) with CAKI-1.
For `COc1cc(C(C)=O)cc(C(=O)N(C(C)C)C(C)C)c1[Si](C)(C)C`, the GI50 was > 100000 nM (inactive) in the assay with SW-620; > 100000 nM (inactive) in the assay with SF-268; 79600 nM (inactive) in the assay on MOLT-4; > 100000 nM (inactive) with MDA-MB-231; 99300 nM (inactive) in the assay with HOP-92; > 100000 nM (inactive) with IGROV-1. Besides, the GI50 is 52800 nM (inactive) in the assay on NCI-H23; > 100000 nM (inactive) in the assay with HCT-116; > 100000 nM (inactive) in the assay on 786-0; > 100000 nM (inactive) in the assay on KM12; > 100000 nM (inactive) with NCI-H226; > 100000 nM (inactive) in the assay on OVCAR-3. The GI50 in the assay on HCT-15 was above 100000 nM; in the assay with PC-3, > 100000 nM (inactive); with Hs-578T, > 100000 nM (inactive); in the assay on SNB-19 it was > 100000 nM (inactive); in the assay on BT-549 it was > 100000 nM (inactive); in the assay with OVCAR-4, > 100000 nM (inactive). Besides, the GI50 with MDA-N and in the assay on CAKI-1 was > 100000 nM (inactive) in each case.
On to `C[n+]1c2ccccc2n2c3ccccc3c(NCc3ccco3)c(C#N)c21`, for which the GI50 is 640 nM (active) with SW-620; 2420 nM (inactive) with SF-268; 984 nM (active) with MOLT-4; 2210 nM (inactive) with MDA-MB-231; 5940 nM (inactive) in the assay on HOP-92; 1460 nM (inactive) in the assay with NCI-H23. In addition, the GI50 in the assay on HCT-116 was 957 nM (active); with 786-0 it was 1510 nM (inactive); with KM12, 2790 nM (inactive); with NCI-H226 it was 2230 nM (inactive); in the assay with OVCAR-3, 2700 nM (inactive); in the assay on HCT-15 it was 1050 nM. Moreover, the GI50 was 2230 nM (inactive) with PC-3; 2960 nM (inactive) in the assay with Hs-578T; 3110 nM (inactive) with SNB-19; 18500 nM (inactive) in the assay with BT-549; 2820 nM (inactive) in the assay with OVCAR-4; 1960 nM (inactive) in the assay on MDA-N. In the assay with CAKI-1, the GI50 was 2070 nM (inactive).
`CC(O)CCCCC(O)CCC[C@H](O)[C@H]1CCC([C@H]2CCC([C@@H](O)CCCCCCCCCCCCC3=C[C@H](C)OC3=O)O2)O1` (some centres undefined): the GI50 in the assay with SW-620 is 12800 nM (inactive); in the assay with SF-268, 11600 nM (inactive); in the assay with MOLT-4 it was 3900 nM (inactive); with MDA-MB-231, 10400 nM (inactive); in the assay on HOP-92, 11400 nM (inactive); in the assay on IGROV-1, 10500 nM (inactive). Besides, the GI50 with NCI-H23 is 8650 nM (inactive); in the assay with HCT-116, 66.7 nM (active); with 786-0, 14400 nM (inactive); in the assay on KM12 it was 5480 nM (inactive); with NCI-H226, 9590 nM (inactive); in the assay on OVCAR-3, 9510 nM (inactive). In addition, the GI50 with HCT-15 is 14700 nM; with PC-3 it was 10700 nM (inactive); in the assay on Hs-578T, 12300 nM (inactive); with SNB-19, 10300 nM (inactive); in the assay on BT-549, 11200 nM (inactive); with OVCAR-4, 12600 nM (inactive). Moreover, the GI50 with MDA-N is 10600 nM (inactive); in the assay on CAKI-1, 9840 nM (inactive).
For `NCCCCNCCCN1CC1`, the GI50 with SW-620 was 4160 nM (inactive); in the assay on SF-268, 957 nM (active); with MOLT-4 it was 1000 nM (active); with MDA-MB-231, 624 nM (active); in the assay with HOP-92 it was 279 nM (active); in the assay with IGROV-1 it was 2770 nM (inactive). The GI50 was 2570 nM (inactive) in the assay with NCI-H23; 2420 nM (inactive) with HCT-116; 359 nM (active) in the assay with 786-0; 4670 nM (inactive) in the assay on KM12; 2670 nM (inactive) in the assay on NCI-H226; 619 nM (active) in the assay with OVCAR-3. Also, the GI50 in the assay with HCT-15 is 4910 nM; in the assay on PC-3, 5220 nM (inactive); with Hs-578T it was 433 nM (active); in the assay on SNB-19, 1860 nM (inactive); in the assay with BT-549, 1060 nM (active); in the assay on OVCAR-4, 205 nM (active). The GI50 is 1620 nM (inactive) in the assay with MDA-N and 89.3 nM (active) with CAKI-1.
Consider `CC1=CC(=O)[C@@H](O)[C@]2(C)[C@H]3[C@@]4(O)OC[C@@]35[C@@H](C[C@@H]12)OC(=O)C(OC(=O)CC1=CCCC1)[C@H]5[C@@H](C)[C@H]4O` (some centres undefined), for which the GI50 with SW-620 is 62.2 nM (active); in the assay with SF-268 it was 34.5 nM (active); in the assay with MOLT-4, < 14.5 nM (active); in the assay with MDA-MB-231, 55.9 nM (active); in the assay with HOP-92, 54.8 nM (active); in the assay with IGROV-1, 18.8 nM (active). Besides, the GI50 is 18.7 nM (active) in the assay on NCI-H23; 25.5 nM (active) in the assay with HCT-116; 46.5 nM (active) in the assay on 786-0; 25.6 nM (active) in the assay with KM12; 16.7 nM (active) in the assay on NCI-H226; 23.9 nM (active) in the assay on OVCAR-3. Further, the GI50 with HCT-15 is 59.3 nM; in the assay with PC-3, 31.1 nM (active); in the assay on Hs-578T, 27.2 nM (active); in the assay on SNB-19 it was 34.4 nM (active); in the assay with BT-549, 40.9 nM (active); with OVCAR-4 it was 52.7 nM (active). For the same molecule, the GI50 in the assay with MDA-N was 26.9 nM (active); in the assay with CAKI-1, 167 nM (active).
